Data on 13 compounds can be found in US8309550B2, “Kinase inhibitors and their use as pharmaceutical agents” (Shanghai Genomics, Inc., priority 2011, dated 2012).

One assay concerns the target T1, CDK1/cyclinB (Homo sapiens, UniProt P06493).
T1 construct: purchased Invitrogen PV3292
Put plainly: Z'-LYTE kinase assay CDK1/cyclinB. It is filed as biochemical. In short, it runs like this:
(§1)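 For CDK1/cyclinB and CDK5/p35, each human recombinant enzyme was used at 0.8 ng/reaction on Ser/Thr 12 peptide under 20 μM ATP. Inhibition was measured by Z′-LYTE FRET after 1 h reaction plus 1 h development at room temperature.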

The target of a further assay is T2, CDK5/p35 (Homo sapiens, UniProt Q00535).
T2 construct: purchased Invitrogen PV3000
T2 sequence (Q00535 whole entry): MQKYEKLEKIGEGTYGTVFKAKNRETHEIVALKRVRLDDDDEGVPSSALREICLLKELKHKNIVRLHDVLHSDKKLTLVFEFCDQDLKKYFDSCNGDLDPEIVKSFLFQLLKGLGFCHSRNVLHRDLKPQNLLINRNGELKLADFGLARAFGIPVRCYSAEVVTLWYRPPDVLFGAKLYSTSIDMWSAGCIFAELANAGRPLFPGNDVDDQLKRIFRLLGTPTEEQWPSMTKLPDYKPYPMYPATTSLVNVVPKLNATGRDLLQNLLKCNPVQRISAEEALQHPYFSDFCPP
T2 sequence (Q15078 whole entry partner): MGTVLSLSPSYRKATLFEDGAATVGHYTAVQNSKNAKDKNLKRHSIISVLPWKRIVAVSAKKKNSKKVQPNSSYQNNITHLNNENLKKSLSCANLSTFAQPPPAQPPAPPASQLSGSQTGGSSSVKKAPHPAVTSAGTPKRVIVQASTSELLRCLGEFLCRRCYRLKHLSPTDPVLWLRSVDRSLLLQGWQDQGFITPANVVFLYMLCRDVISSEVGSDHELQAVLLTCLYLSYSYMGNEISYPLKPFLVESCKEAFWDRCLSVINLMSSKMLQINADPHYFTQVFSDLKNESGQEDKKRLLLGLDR
Put plainly: Z'-LYTE kinase assay CDK5/p35. It is filed as biochemical. The method, boiled down: as §1

Another assay has as its target Aurora B (Homo sapiens, UniProt Q96GD4). Nature of the assay: Kinase assay Aurora B (Table I). It is filed as biochemical.
The target in another assay is T3, CDK2/cyclinA (Homo sapiens, UniProt P24941).
T3 construct: purchased Invitrogen PV3267
Nature of the assay: Z'-LYTE kinase assay CDK2/cyclinA. The assay is classed as biochemical. In short, it runs like this:
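This Z′-LYTE™ fluorescence assay measured inhibition of human CDK2/cyclinA. After the 1 hr kinase reaction, development buffer was added for another hour at room temperature, then stop buffer. The 445 nm/520 nm emission ratio, excited at 400 nm, was read on a VICTOR-3 Multilabel Reader and converted to phosphorylation. Compounds were prepared as 10 mM DMSO stocks.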

In the next assay the test system is H460-luc. Nature of the assay: 72 h MTT cytotoxicity assay H460-luc. The assay is classed as cell-based. Particulars: Homo sapiens. From the text:
MIT cytotoxicity assay. The compounds of the invention were subjected to a standard cellular proliferation assay using human cell lines. HeLa cells (Human cervix adenocarcinoma cell line, ATCC NO, CCL-2); A549 cells (Human lung carcinoma cells line, ATCC NO, CCL-185); U2OS cells (Human osteosarcoma cell line, ATCC NO, HTB-96); Eca-109 cells (Human esophageal carcinoma cell line); HepG2 (Human hepatocellular liver carcinoma cell line, ATCC NO, HB-8065); K562 cells (Human chronic myelogenous leukemia cell line, ATCC NO, CCL-243); SK-MEL-28 (Human malignant melanoma cell line, ATCC NO, HTB-72); Molt-4 (Human acute lymphoblastic leukemia cell line, ATCC NO, CRL-1582); H460 (Human large cell lung cancer cell line, ATCC NO, HTB-177); MDA-MB-231 (Human breast adenocarcinoma cell line, ATCC NO, HTB-26); MCF7 (Human breast adenocarcinoma cell line, ATCC NO, HTB-22); ACHN (Human renal cell adenocarcinoma cell line, ATCC NO, CRL-1611); PC-3M (Human prostate adenocarcinoma cell line, ATCC NO CRL-1435); HL60 (Human acute promyelocytic leukemia cell line, ATCC NO, CCL-240); THP-1 (Human acute monocytic leukemia, ATCC NO, TIB-202); Jurkat (Human acute T cell leukemia cell line, ATCC NO, CRL-2063); HCT-116 (Human colorectal carcinoma cell line, ATCC NO, CCL-247); HT-29 (Human colorectal adenocarcinoma cell line, ATCC NO, HTB-38™); WI-38 (Human normal lung cell line, ATCC NO, CCL-75); MRC-5 (Human normal lung cell line, ATCC NO, CCL-171).
HepG2, MDA-MB-231, WI-38 and MRC-5 cells were obtained from Shanghai Institute of Cell Biology, Chinese Academy of Sciences (Shanghai 200031, China). A549, HeLa, K562, MCF7, ACHN, H460, U2OS, Eca-109, MCF7, HL60, THP-1, Jurkat, HCT-116, HT-29, PC-3M, SK-MEL-28, Molt-4, H460 and […] cells were purchased from ATCC (American Type Culture Collection, USA).
Standard 72 h MTT (thiazolye blue; 3-[4,5-dimethylthiazol-2-yl]-2,5-diphenyltetrazolium bromide) assays were performed. Briefly, the cell lines used in this study were recovered and cultured according to the conditions recommended. 4000 cells per well were seeded into 96-well plates according to doubling time and incubated overnight at 37° C. Compounds were prepared in DMSO and a ½ dilution series in 100 μl cell culture media, added to cells (in duplicates) with the final DMSO concentration of 0.025%, and incubated for 72 hrs at 37° C. MTT solution (5 mg/ml) was added at 10 μl per well and incubated in the dark at 37° C. for 4 hr. Culture medium and MTT solution was removed. MTT dye was solubilised with 100 μl per well of DMSO with agitation. Absorbance was read at 562 nm and data analyzed using Sigmoid curve-fitting software Origin 6.0 (MicroCal, LLC, USA) to determine IC50 value.

The next assay deals with T4, Aurora A (Homo sapiens, UniProt O14965).
T4 construct: purchased Invitrogen PV3612
T4 sequence (O14965 1-403): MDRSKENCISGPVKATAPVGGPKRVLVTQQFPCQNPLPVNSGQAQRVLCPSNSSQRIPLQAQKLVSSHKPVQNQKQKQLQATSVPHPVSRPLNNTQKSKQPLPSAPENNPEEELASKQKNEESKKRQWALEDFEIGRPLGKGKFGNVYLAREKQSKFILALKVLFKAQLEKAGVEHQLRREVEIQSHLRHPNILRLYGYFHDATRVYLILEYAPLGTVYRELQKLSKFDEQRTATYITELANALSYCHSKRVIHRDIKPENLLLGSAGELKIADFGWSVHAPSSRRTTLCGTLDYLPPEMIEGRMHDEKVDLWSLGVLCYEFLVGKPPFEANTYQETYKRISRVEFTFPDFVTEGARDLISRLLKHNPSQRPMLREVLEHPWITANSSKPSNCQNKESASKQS
Put plainly: Z'-LYTE kinase assay Aurora A. It is filed as biochemical. In short, it runs like this: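 Aurora A inhibition was measured by Z′-LYTE™. After a one-hour kinase reaction at room temperature, development buffer was added for another hour, then stop buffer. A VICTOR-3 reader recorded the 445 nm/520 nm emission ratio with excitation at 400 nm. Phosphorylation was derived from this ratio, and IC50 was obtained by sigmoid fitting in Origin 6.0.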

[1] abbreviates: read-out: Kinase inhibition, IC50 CDK1B.
Where [2] appears, read: read-out: Kinase inhibition, IC50 CDK5/p35.
Setting [3] is: read-out: Kinase inhibition, IC50 Aurora B.
[4] abbreviates: read-out: Kinase inhibition, IC50 CDK2A.
Setting [5] is: NCI-H460-Luc, H460-luc, 72 hrs, read-out: Cytotoxicity, MTT 72 hrs, IC50 H460-luc.
[6] abbreviates: read-out: Kinase inhibition, IC50 Aurora A.
The mark [7] stands for this setting: Table III, read-out: Target biochemical activity IC50 CDK1.
Setting [8] is: Table III, read-out: Target biochemical activity IC50 CDK5.
[9] abbreviates: Table III, read-out: Target biochemical activity IC50 Aurora B.
Setting [10] is: Table III, read-out: Target biochemical activity IC50 CDK2.
[11] abbreviates: H460, Table III, read-out: Cellular effect in mammalian cells IC50 H460.
Setting [12] is: Table III, read-out: Target biochemical activity IC50 Aurora A.

Read-outs that look alike come from different tables or passages of the source.

Aurora B, sequence (Q96GD4 whole entry): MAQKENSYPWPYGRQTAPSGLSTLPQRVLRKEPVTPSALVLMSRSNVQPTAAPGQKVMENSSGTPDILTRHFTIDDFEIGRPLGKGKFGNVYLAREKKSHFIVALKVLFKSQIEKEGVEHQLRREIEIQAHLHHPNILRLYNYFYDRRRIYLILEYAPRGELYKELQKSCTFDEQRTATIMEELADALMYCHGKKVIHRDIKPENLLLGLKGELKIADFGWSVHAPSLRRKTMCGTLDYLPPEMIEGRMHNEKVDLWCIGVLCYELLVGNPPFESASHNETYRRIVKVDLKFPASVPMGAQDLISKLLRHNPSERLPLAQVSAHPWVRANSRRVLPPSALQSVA
T1 sequence (P06493 whole entry): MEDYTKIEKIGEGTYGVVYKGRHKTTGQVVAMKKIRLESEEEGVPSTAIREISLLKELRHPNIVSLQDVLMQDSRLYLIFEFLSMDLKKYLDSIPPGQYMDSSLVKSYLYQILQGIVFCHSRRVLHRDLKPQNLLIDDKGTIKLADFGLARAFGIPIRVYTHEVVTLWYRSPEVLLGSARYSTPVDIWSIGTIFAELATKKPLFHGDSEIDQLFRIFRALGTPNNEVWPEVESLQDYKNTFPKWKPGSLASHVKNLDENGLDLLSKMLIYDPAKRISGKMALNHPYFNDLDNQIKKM
T1 sequence (P14635 whole entry partner): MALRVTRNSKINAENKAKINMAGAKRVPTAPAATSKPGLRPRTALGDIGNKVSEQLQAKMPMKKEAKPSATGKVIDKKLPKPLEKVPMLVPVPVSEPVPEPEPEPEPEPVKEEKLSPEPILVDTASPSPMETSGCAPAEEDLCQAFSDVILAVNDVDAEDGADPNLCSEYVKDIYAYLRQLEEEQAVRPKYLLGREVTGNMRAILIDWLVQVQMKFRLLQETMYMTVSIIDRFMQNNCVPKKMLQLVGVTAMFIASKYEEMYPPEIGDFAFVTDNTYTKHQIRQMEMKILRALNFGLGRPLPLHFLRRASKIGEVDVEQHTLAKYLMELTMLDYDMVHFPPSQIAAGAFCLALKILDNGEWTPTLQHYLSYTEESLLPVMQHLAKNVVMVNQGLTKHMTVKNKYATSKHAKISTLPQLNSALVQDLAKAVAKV

Take `CCCn1cc(-c2ccnc(Nc3ccc(C)c(S(=O)(=O)N4CCOCC4)c3)n2)c2ccncc21` [Compound 102, N-(4-Methyl-3-(morpholinosulfonyl)phenyl)-4-(1-propyl-1H-pyrrolo[2,3-c]pyridin-3-yl)pyrimidin-2-amine]: the IC50 at CDK1/cyclinB (setting [1]) is 0.07 µM; at CDK5/p35 (setting [2]), 0.025 µM; at Aurora B (setting [3]) it was 3.42 µM; at CDK2/cyclinA (setting [4]) it was 0.03 µM; in the assay with H460-luc (setting [5]) it was 0.22 µM; at Aurora A (setting [6]), 1.65 µM.

Consider `CCCn1cc(-c2ccnc(Nc3ccc(S(N)(=O)=O)cc3)n2)c2nc(Cl)cc(C)c21` [SG54], for which the IC50 at CDK1/cyclinB (setting [7]) was > 10 µM; on CDK5/p35 (setting [8]), > 10 µM; on Aurora B (setting [9]), 0.32 µM; on CDK2/cyclinA (setting [10]), 1.67 µM; in the assay with H460-luc (setting [11]), 1.03 µM; on Aurora A (setting [12]) it was 0.62 µM.

In the case of `CCCn1cc(-c2ccnc(Nc3ccc(C)c(S(=O)(=O)N4CCOCC4)c3)n2)c2cccnc21` [Compound 24, N-(4-Methyl-3-(morpholinosulfonyl)phenyl)-4-(1-propyl-1H-pyrrolo[2,3-b]pyridin-3-yl)pyrimidin-2-amine], the IC50 on CDK1/cyclinB (setting [1]) is 5.19 µM; at CDK5/p35 (setting [2]), 8.9 µM; on Aurora B (setting [3]), ≥ 10 µM; on CDK2/cyclinA (setting [4]), 4.58 µM; in the assay with H460-luc (setting [5]), 1.41 µM; at Aurora A (setting [6]), 9.44 µM.

In the case of `CCCn1cc(-c2ccnc(Nc3cccc(S(N)(=O)=O)c3)n2)c2ccncc21` [SG51], the IC50 at CDK1/cyclinB (setting [7]) was 0.0004 µM; at CDK5/p35 (setting [8]), 0.0005 µM; on Aurora B (setting [9]), 0.059 µM; on CDK2/cyclinA (setting [10]), 0.0005 µM; with H460-luc (setting [11]) it was < 0.1 µM; at Aurora A (setting [12]), 0.05 µM.

As for `CCCn1cc(-c2ccnc(Nc3cccc(S(N)(=O)=O)c3)n2)c2ccncc21` [Compound 111, 3-(4-(1-Propyl-1H-pyrrolo[2,3-c]pyridin-3-yl)pyrimidin-2-ylamino)benzenesulfonamide], the IC50 on CDK1/cyclinB (setting [1]) was found to be 0.0004 µM; at CDK5/p35 (setting [2]) it was 0.0005 µM; on Aurora B (setting [3]), 0.059 µM; on CDK2/cyclinA (setting [4]), 0.0005 µM; with H460-luc (setting [5]) it was 0.006 µM; on Aurora A (setting [6]), 0.05 µM.

For the compound `CCCn1cc(-c2ccnc(Nc3ccc(C)c(S(=O)(=O)N4CCOCC4)c3)n2)c2ccncc21` [SG52], the IC50 on CDK1/cyclinB (setting [7]) is 0.07 µM; on CDK5/p35 (setting [8]) it was 0.025 µM; at Aurora B (setting [9]), 1 µM; at CDK2/cyclinA (setting [10]) it was 0.03 µM; with H460-luc (setting [11]), 0.22 µM; at Aurora A (setting [12]) it was 1.65 µM.

`CCn1cc(-c2ccnc(Nc3cccc(S(N)(=O)=O)c3)n2)c2cccnc21` [Compound 18, 3-(4-(1-Ethyl-1H-pyrrolo[2,3-b]pyridin-3-yl)pyrimidin-2-ylamino)benzenesulfonamide]: the IC50 on CDK1/cyclinB (setting [7]) was 0.624 µM; on CDK1/cyclinB (setting [1]) it was 0.624 µM; on CDK5/p35 (setting [8]), 0.271 µM; on CDK5/p35 (setting [2]) it was 0.271 µM; on Aurora B (setting [9]) it was 0.7 µM; on Aurora B (setting [3]), 0.7 µM. The IC50 at CDK2/cyclinA (setting [10]) was 0.003 µM; at CDK2/cyclinA (setting [4]) it was 0.003 µM; in the assay with H460-luc (setting [5]), 1.27 µM; in the assay with H460-luc (setting [11]) it was 1.27 µM; at Aurora A (setting [12]), 0.03 µM; at Aurora A (setting [6]), 0.03 µM.

`CCCn1cc(-c2ccnc(Nc3cccc(S(N)(=O)=O)c3)n2)c2nc(Cl)cc(C)c21` [SG53]: the IC50 was 6.84 µM on CDK1/cyclinB (setting [7]); > 10 µM on CDK5/p35 (setting [8]); 0.19 µM at Aurora B (setting [9]); > 10 µM at CDK2/cyclinA (setting [10]); 2 µM in the assay with H460-luc (setting [11]); 0.098 µM on Aurora A (setting [12]).

For the compound `CCCn1cc(-c2ccnc(Nc3ccc(O)cc3)n2)c2cccnc21` [Compound 15, 4-(4-(1-Propyl-1H-pyrrolo[2,3-b]pyridin-3-yl)pyrimidin-2-ylamino)phenol], the IC50 amounted to 1.67 µM at CDK1/cyclinB (setting [1]); 2.24 µM at CDK5/p35 (setting [2]); 0.67 µM at Aurora B (setting [3]); 0.028 µM at CDK2/cyclinA (setting [4]); 4.98 µM in the assay on H460-luc (setting [5]); 0.21 µM at Aurora A (setting [6]).

Regarding `CCCn1cc(-c2ccnc(Nc3cccc(S(N)(=O)=O)c3)n2)c2ccnc(Cl)c21` [Compound 96, 3-(4-(7-chloro-1-propyl-1H-pyrrolo[2,3-c]pyridin-3-yl)pyrimidin-2-ylamino)benzenesulfonamide], the IC50 is < 0.0001 µM on CDK1/cyclinB (setting [1]); 0.02 µM on CDK5/p35 (setting [2]); > 10 µM on Aurora B (setting [3]); < 0.0001 µM on CDK2/cyclinA (setting [4]); 0.26 µM with H460-luc (setting [5]); 0.8 µM on Aurora A (setting [6]).

Turning to `CCn1cc(-c2ccnc(Nc3cccc(C#N)c3)n2)c2cccnc21` [Compound 20, 3-(4-(1-Ethyl-1H-pyrrolo[2,3-b]pyridin-3-yl)pyrimidin-2-ylamino)benzonitrile], the IC50 was 7.01 µM at CDK1/cyclinB (setting [1]); 4.61 µM at CDK5/p35 (setting [2]); > 10 µM at Aurora B (setting [3]); 3.48 µM at CDK2/cyclinA (setting [4]); > 10 µM with H460-luc (setting [5]); 6.99 µM at Aurora A (setting [6]).

For the compound `CCCn1cc(-c2ccnc(Nc3cccc(O)c3)n2)c2cccnc21` [Compound 16, 3-(4-(1-Propyl-1H-pyrrolo[2,3-b]pyridin-3-yl)pyrimidin-2-ylamino)phenol], the IC50 on CDK1/cyclinB (setting [1]) is 1.36 µM; on CDK5/p35 (setting [2]), 2.32 µM; on Aurora B (setting [3]), 1.25 µM; at CDK2/cyclinA (setting [4]), 0.006 µM; in the assay with H460-luc (setting [5]) it was 4.06 µM; on Aurora A (setting [6]), > 10 µM.

On to `CCCn1cc(-c2ccnc(Nc3cccc(S(N)(=O)=O)c3)n2)c2cccnc21` [Compound 22, 3-(4-(1-Propyl-1H-pyrrolo[2,3-b]pyridin-3-yl)pyrimidin-2-ylamino)benzenesulfonamide], for which the IC50 came to 0.45 µM on CDK1/cyclinB (setting [1]); 0.4 µM on CDK5/p35 (setting [2]); 3.6 µM on Aurora B (setting [3]); 0.19 µM on CDK2/cyclinA (setting [4]); 1.11 µM with H460-luc (setting [5]); 0.008 µM on Aurora A (setting [6]).
